For the assay, the system named is HBV. In words: HBV primary assay (HepG2-2.2.15 antiviral assay). The class given is cell-based. The conditions noted are these: Hepatitis B virus, Test Concentration 10 μM, read-out: Antiviral Activity Percent inhibition of cell control. The method, then: The HBV primary assay developed was conducted similarly to that described by Korba et al., (Antiviral Res. 15: 217-228 (1991) and Antiviral Res. 19: 55-70 (1992)) with the exception that viral DNA detection and quantification have been improved and simplified (Korba et al., Antiviral Res. 19: 55-70 (1992)).
The HepG2-2.2.15 is a stable cell line producing high levels of the wild-type aywl strain of HBV. Briefly, HepG2-2.2.15 cells were plated in 96-well plates. Only the interior wells were utilized to reduce “edge effects” observed during cell culture; the exterior wells are filled with complete medium to help minimize sample evaporation. […] Six days following the initial administration of the test compound, the cell culture supernatant was collected, treated with pronase and DNAse and then used in a real-time quantitative TaqMan PCR assay for direct measurement of HBV DNA copies using an ABI Prism 7900 sequence detection system (Applied Biosystems, Foster City, Calif.).
The antiviral activity of each test compound was calculated by comparing its HBV DNA copies against that of the untreated control cells (100%) to derive percent inhibition level. […] Cytotoxicity of the compound was determined by comparing its cell viability with that of the untreated cell control to derive percentage of the cell control.

Counter-ions that a name gives are not always drawn.

Broadly, the inhibition is the percentage by which the read-out fell short of the control.

With `O=C(Cc1ccc(-c2ccc(OCCN3CCOCC3)cc2)cn1)NCc1ccccc1` [Compound (I): 2HCl, 2-(5-(4-(2-morpholinoethoxy)phenyl)pyridin-2-yl)-N-benzylacetamide dihydrochloride salt], the inhibition at 10 µM turned out to be 48.2%.
